Reference: patent publication US20240269304A1, “BCL-XL INHIBITOR ANTIBODY-DRUG CONJUGATES AND METHODS OF USE THEREOF” (Novartis AG, priority 2020, published 2024)
Read-outs that look alike come from different tables or passages of the source.

Tests used:
H1650 cells = experiment: CellTiterGlo (CTG) cell viability, 3D, 120 h, H1650 (Example 8); format: cell-based, human; settings: Homo sapiens, NCI-H1650, H1650 3D
ALL-SIL cells = experiment: CellTiterGlo (CTG) cell viability, 72 h, ALL-SIL (Example 8); format: cell-based
Outline: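 In RPMI with 20% FBS, ALL-SIL cells were exposed for 72 h to serially diluted payloads or ADCs (9 concentrations, triplicate) at 37 °C/5% CO2. Viability was measured as cellular ATP by CellTiterGlo luminescence, with IC50 from four-parameter fit.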

corl279 = experiment: In vitro ADC activity with combination partners (Venetoclax, Topotecan), CellTiter-Glo 5 days, corl279 (Example 13); format: cell-based; settings: single agent
Method: (§1) Antibody drug conjugates (ADCs) targeting IgG, B7H3, CD56, DLK1, DLL3, EpCAM, and SEZ6 were tested against cancer cell lines obtained from ATCC (American Type Culture Collection) or from other commercial cell line vendors (cor1279, ncih1436, ncih146, ncih211, ncih524). The cells were cultured in media that is optimal for their growth at 5% CO2, 37° C. in a tissue culture incubator. Prior to seeding for the proliferation assay, the cells were split at least 2 days before the assay to ensure optimal growth density. On the day of seeding, cells were lifted off tissue culture flasks using 0.25% trypsin. Cell viability and cell density were determined using a cell counter (Vi-Cell XR Cell Viability Analyzer, Beckman Coulter). Cells with higher than 85% viability were seeded in white clear bottom 384-well plates (Greiner cat #781098) at a density of 1000 cells per well in 50 μL of standard growth media. Plates were incubated at 37° C. overnight in a tissue culture incubator.
(§2) The ADCs were prepared in standard phosphate buffered solution to desired concentrations. A series of 10 dilutions were made for each ADC. The prepared drug treatments were then added to the cells resulting in final concentrations of 300 nM to 0.015 nM. Combination partners (Venetoclax and Topotecan) were added at fixed concentrations. Acoustic transfer devices (Echo525, Echo550, Beckman Coulter) were used to add the ADCs or combination partners to the cells. Each treatment was tested in triplicate assay plates. Plates were incubated at 37° C. overnight or for 5 days in a tissue culture incubator. The ability of the ADCs to inhibit cell proliferation and survival was assessed using the Promega CellTiter-Glo® proliferation assay. Plates were incubated at room temperature for 20 minutes to stabilize luminescent signals prior to reading using a multimode plate reader (Pherastar, BMG). Luminescent counts of untreated cells were taken the day after seeding (Day 0 readings), and after 5 days of treatment (Day 5 readings). The Day 5 readings of the untreated cells were compared to the Day 0 readings. Assays with at least one cell doubling during the incubation period were considered valid. To evaluate the effect of the drug treatments, luminescent counts from wells containing untreated cells (100% viability) were used to normalize treated samples. The concentrations of treatment required to inhibit 50% of cell growth or survival ([…]) were calculated using a four parameter logistic regression equation.

ncih211 = experiment: In vitro ADC activity with combination partners, CellTiter-Glo 5 days, ncih211 (Example 13); format: cell-based; settings: single agent
Method: as §1, §2

HPB-ALL (T-ALL) = experiment: CellTiter-Glo viability 72 h, single agent or 1/1 combination with vincristine, ABT-199 or Compound A2, HPB-ALL (Example 9); format: cell-based; settings: Homo sapiens, HPBALL, single agent or 1/1 combination as labelled
Method: (§3) Cell lines were cultured in the media described above at 37° C. in a humidified atmosphere containing 5% CO2. Cells were seeded in 96 well clear bottom plates (96 well clear-bottom, white, Corning reference 3903) and exposed to the payloads or ADCs at single agents or in 1/1 combinations with vincristine, ABT-199 or compound A2 for 72 h (serially diluted; 9 concentrations each, triplicates). Effects of payloads or ADCs on cell viability were assessed after 3 days of incubation at 37° C./5% CO2 by quantification of cellular ATP levels using CellTiter-Glo reagent (Promega Ref: G7571) at 75 μL reagent/well. All the conditions were tested in triplicates. Luminescence was quantified on a multipurpose plate reader. IC50s were calculated using standard four-parametric curve fitting. […] Each experiment was performed at least twice, with results being reproducible.

LOUCY (T-ALL) = experiment: CellTiter-Glo viability 72 h, single agent or 1/1 combination, LOUCY (Example 9); format: cell-based; settings: single agent or 1/1 combination as labelled
Method: as §3

ncih146 = experiment: In vitro ADC activity with combination partners, CellTiter-Glo 5 days, ncih146 (Example 13); format: cell-based; settings: single agent
Method: as §1, §2

ncih524 = experiment: In vitro ADC activity with combination partners, CellTiter-Glo 5 days, ncih524 (Example 13); format: cell-based; settings: single agent
Method: as §1, §2

MM1S (MM) = experiment: CellTiter-Glo viability 72 h, single agent or 1/1 combination, MM1S (Example 9); format: cell-based; settings: Homo sapiens, MM1.S, single agent or 1/1 combination as labelled
Method: as §3

- IC50 (H1650 cells; experiment n1, read-out: H1650 3D CTG IC50 n1): 0.31 nM
- IC50 (H1650 cells; experiment n2, read-out: H1650 3D CTG IC50 n2): 0.37 nM
- IC50 (H1650 cells; mean of n1 and n2, read-out: H1650 3D CTG IC50 Mean of n1 and n2): 0.34 nM
- IC50 (MM1S (MM); mean, read-out: MM1S (MM) IC50 mean): 17.4 nM
- IC50 (MM1S (MM); n1, read-out: MM1S (MM) IC50 n1): 10.4 nM
- IC50 (MM1S (MM); n2, read-out: MM1S (MM) IC50 n2): 24.3 nM
Structure (SMILES): Cc1c(Nc2nc3ccccc3s2)nnc2c1CCCN2c1ccc(-c2cnn(C[C@]34C[C@]5(C)C[C@](C)(C3)C[C@@](OCCN3CCCC3)(C5)C4)c2C)c(C(=O)O)n1 [P21, 6-[3-(1,3-benzothiazol-2-ylamino)-4-methyl-6,7-dihydro-5H-pyrido[2,3-c]pyridazin-8-yl]-3-[1-[[3,5-dimethyl-7-(2-pyrrolidin-1-ylethoxy)-1-adamantyl]methyl]-5-methyl-pyrazol-4-yl]pyridine-2-carboxylic acid]
- IC50 (ALL-SIL cells; experiment n1, read-out: ALLSIL CTG 72 h IC50 nM n1): 0.02 nM
- IC50 (ALL-SIL cells; experiment n2, read-out: ALLSIL CTG 72 h IC50 nM n2): 0.05 nM
- IC50 (ALL-SIL cells; mean of n1 and n2, read-out: ALLSIL CTG 72 h IC50 nM Mean of n1 and n2): 0.04 nM
- GI50 (corl279; Homo sapiens, COR-L279, 120 h): 0.00242 µM
- GI Amax corl279 (corl279): −88.27
- GI50 (ncih211; Homo sapiens, NCI-H211, 120 h): 0.000508 µM
- GI Amax ncih211 (ncih211): −97.26
- IC50 (HPB-ALL (T-ALL); mean, read-out: HPB-ALL (T-ALL) IC50 mean): 1.01 nM
- IC50 (HPB-ALL (T-ALL); n1, read-out: HPB-ALL (T-ALL) IC50 n1): 1.33 nM
- IC50 (HPB-ALL (T-ALL); n2, read-out: HPB-ALL (T-ALL) IC50 n2): 0.69 nM
- IC50 (LOUCY (T-ALL); mean, read-out: LOUCY (T-ALL) IC50 mean): 0.73 nM
- IC50 (LOUCY (T-ALL); n1, read-out: LOUCY (T-ALL) IC50 n1): 0.73 nM
- GI50 (ncih146; Homo sapiens, NCI-H146, 120 h): 0.000508 µM
- GI Amax ncih146 (ncih146): −98.38
- GI50 (ncih524; Homo sapiens, NCI-H524, 120 h): 0.000508 µM
- GI Amax ncih524 (ncih524): −97.52
